{"source": "patent US20220047656A1", "about": "“SACCHAROMYCES CEREVISIAE YEAST STRAIN FOR THE TREATMENT AND/OR PREVENTION OF OROPHARYNGEAL CANDIDIASIS” (LESAFFRE ET COMPAGNIE, priority 2018, published 2022)", "type_in_all_cases": "in vivo, C57BL/6 mice", "key": {"IL-1β": {"test_system": "IL-1β", "assay": "ELISA of IL-1β in supernatants of tongue homogenates", "details": "vs infected mice treated with saline solution"}, "IL-6": {"test_system": "IL-6", "assay": "ELISA of IL-6 in supernatants of tongue homogenates"}, "TNF-α": {"test_system": "TNF-α", "assay": "ELISA of TNF-α in supernatants of tongue homogenates", "details": "vs infected mice treated with saline solution"}}}
{"smiles": "OC(Cn1cncn1)(Cn1cncn1)c1ccc(F)cc1F", "note": "[FLZ, fluconazole]", "values": [{"measurement": "production of IL-1β", "setting": "IL-1β; 3 days after infection", "result": "considerable inhibition"}, {"measurement": "production of IL-1β", "setting": "IL-1β; 6 days post-infection", "result": "significant decrease"}, {"measurement": "production of IL-6", "setting": "IL-6; 3 days after infection, otherwise unchanged compared to the untreated mice", "result": "exception"}, {"measurement": "production of IL-6", "setting": "IL-6; 6 days post-infection, vs infected mice treated with saline solution", "result": "significant decrease"}, {"measurement": "production of TNF-α", "setting": "TNF-α; 3 days after infection", "result": "considerable inhibition"}, {"measurement": "production of TNF-α", "setting": "TNF-α; 6 days post-infection", "result": "significant decrease"}]}
